We go through 70 compounds from PubChem BioAssay AID179 (DTP/NCI, 2004).

This experiment has as its system CEM cells HIV-1 protection, formazan growth assay. Description: NCI AIDS Antiviral Assay. Particulars: for IC50: measured here: growth of uninfected CEM cells. In a few lines:
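Protection of CEM cells against HIV-1 measured as cell growth via soluble formazan read-out, with five concentrations tested on both infected and uninfected cells; failure to protect may reflect toxicity.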

The EC50 is the concentration giving half of the maximal effect. One may read the IC50 as the concentration needed to halve the response being measured. A lower IC50 goes with greater potency.

Each structure is given as a SMILES string. Activity calls are given as the source filed them.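 Rule for the calls: active = compounds giving half or more protection of infected cells from virus-caused growth loss, again on retest; inactive = the rest.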 Where a SMILES comes first, the peptide text is derived from it.

As for `O=c1c2c3c(sc2nc2n1N=C(c1ccc(Br)cc1)CS2)CCCC3`, the EC50 was > 200 µM and the IC50 was > 200 µM.
`CSCCC(N)P(C)(=O)O` (configuration not stated): the EC50 was > 200 µM and the IC50 is > 200 µM.
Regarding `CCOC(=O)C(C(=O)OCC)P(=S)(S)c1ccccc1` (configuration not stated), the EC50 was > 4370 µM and the IC50 is > 4370 µM.
`O=C1C=C[C@@]23C=Cc4ccccc4C2CC(O)C1C3` (some centres not stated): the EC50 was > 245 µM and the IC50 stood at 135 µM.
As to `O=[N+]([O-])c1cc([N+](=O)[O-])c(C(Cl)C(Cl)c2ccccc2)cc1C(Cl)C(Cl)c1ccccc1` (configuration not stated), the EC50 is > 5.25 µM and the IC50 was > 5.25 µM.
Take `CCOC(OCC)[C@H](N)[C@@H](O)[C@@H](O)[C@H]1COC(C)(C)O1`: the EC50 was > 200 µM and the IC50 was > 200 µM.
`CCOC(=O)c1sc2nc(SC)nc3c2c1NCN3C1CC1`: the EC50 was > 100 µM and the IC50 is > 100 µM.
As to `Cc1cn(C2CC(SCCO)C(CO)O2)c(=O)[nH]c1=O` (configuration not stated), the EC50 was > 200 µM and the IC50 was > 200 µM.
For the compound `CC(=O)N(NC(=O)P(=O)(OC(C)C)OC(C)C)c1ccc([N+](=O)[O-])cc1`, the EC50 was > 129 µM and the IC50 was > 129 µM.
Regarding `O=C(CP(=O)(O)O)NC(CC(=O)OCc1ccccc1)C(=O)OCc1ccccc1` (configuration not stated), the EC50 is > 100 µM and the IC50 was > 100 µM.
Consider `OCC12CCCC(CO)(COC1)C2O` (configuration not stated), for which the EC50 was > 200 µM and the IC50 was > 200 µM.
With `CCn1c(N)c(N=O)c(=O)n(CC)c1=O`, the EC50 is > 200 µM and the IC50 is > 200 µM.
`N#CI1OC(=O)c2ccccc21`: the EC50 is > 200 µM and the IC50 is > 100 µM.
In the same order, the values of `COc1ccc(Oc2nc3c(N)cc(C(F)(F)F)cc3nc2-c2ccccc2)cc1` are > 100 µM and 34.7 µM.
Consider `CCOc1ccccc1NC(=O)C1=C(C)NC(C)=C(C(=O)Nc2ccccc2OCC)C1c1ccc2c(c1)OCO2`, for which the EC50 was > 12.9 µM and the IC50 is > 12.9 µM.
In the case of `CCCc1c(-c2ccc(OC)cc2)c(=O)oc2cc(O)ccc12`, the EC50 was > 200 µM and the IC50 came to 53.7 µM.
In the same order, the values of `CC(C)C1CC[C@H](C)C[C@@H]1OC(=O)C(C(=O)O[C@H]1C[C@@H](C)CCC1C(C)C)C(O)[C@@H]1OC(C)(C)O[C@H]1C1COC(C)(C)O1` (some centres not stated) are > 200 µM and 7.41 µM.
For `CCN(CC)CSc1nc2ccccc2[nH]1`, the outcome was inactive.
Regarding `Cc1cccc(C)c1NC(=O)CCc1nnc2s/c(=C\c3ccc(Cl)cc3)c(=O)n12`, the EC50 is > 1.7 µM and the IC50 is > 1.7 µM.
Turning to `COc1ccc(/C(C)=N\N)cc1`, the EC50 is > 200 µM and the IC50 was > 200 µM.
Consider `O=[N+]([O-])c1ccc(N/N=C2\C=CCCC2)c([N+](=O)[O-])c1`, for which the EC50 was > 200 µM and the IC50 is > 200 µM.
As for `Cc1cc(=O)c2c3c(ccc2[nH]1)Oc1ccccc1O3`, the EC50 is > 7.59 µM and the IC50 is > 7.59 µM.
For the compound `O=[N+]([O-])c1ccc2cnn(C[N+]34CN5CN(CN(C5)C3)C4)c2c1`, the outcome was inactive.
On to `CCC(C)C(NC(=O)CNC(=O)C(C)NC(=O)CNC(=O)C(NC(=O)C(NC(=O)C(CO)NC(=O)C(Cc1cnc[nH]1)NC(=O)C(N)CCCCN)C(C)CC)C(C)CC)C(=O)NC(CCCCN)C(=O)NC(CCCCN)C(=O)NC(CCCN=C(N)N)C(=O)NC(Cc1ccccc1)C(=O)NC(CC(C)C)C(=O)NC(CCC(N)=O)C(=O)O` (configuration not stated) (H-KHSIIGAGIKKRFLQ-OH; configuration not given here), for which the result was inactive.
With `COC(=O)c1c2n(c3ccccc13)C[C@H]1OC(C)(C)O[C@@H]21`, the EC50 was > 200 µM and the IC50 is 126 µM.
In the same order, the values of `Fc1cccc(C2SCc3nc4ncccc4n32)c1` (configuration not stated) are > 132 µM and > 132 µM.
In the same order, the values of `[Br][Ni][Br].[NH-]CC[NH-].[NH-]CC[NH-]` are > 200 µM and 67.6 µM.
Turning to `CC(=O)OC1C=CN(C(C)=O)C(SC(C)(C)C)C1(C)O` (configuration not stated), the EC50 was > 200 µM and the IC50 is > 200 µM.
Regarding `c1ccc(C2CN3CCSC3=N2)cc1` (configuration not stated), the EC50 is > 200 µM and the IC50 is > 200 µM.
In the case of `Cc1ccccc1NC(=O)C(=O)C(C#N)c1ccc(Cl)cc1` (configuration not stated), the EC50 was > 12 µM and the IC50 is > 12 µM.
For the compound `CC1(C)CCCCC1/C=C/C(CC(O)(C(F)(F)F)C(F)(F)F)=N\Nc1ccc([N+](=O)[O-])cc1[N+](=O)[O-]` (configuration not stated), the EC50 is > 2 µM and the concentration for half-maximal inhibition (IC50) was determined as 0.468 µM.
`COc1ccc2nc3cc(Cl)ccc3c(Nc3ccc(S(=O)(=O)Nc4nccs4)cc3)c2c1`: the EC50 was > 9.77 µM and the IC50 is > 9.77 µM.
For `Nc1cc(C(=O)NC2C3CC4CC(C3)CC2C4)[nH]c(=S)n1` (configuration not stated), the EC50 was > 813 µM and the IC50 was > 813 µM.
`Cc1cccc2c1Sc1ccccc1C2NC(=O)CCN(C)C` (configuration not stated): the EC50 is > 550 µM and the IC50 was determined as 31.6 µM.
The corresponding values for `O=C1c2ccccc2-c2cccc3ccc(Cc4ccc5ccccc5c4)c1c23` are > 5.13 µM and > 5.13 µM.
`CC(=O)OCC1OC(Sc2nc(-c3ccc(Cl)cc3)c(C#N)c(=O)n2C2OC(COC(C)=O)C(OC(C)=O)C(OC(C)=O)C2OC(C)=O)C(OC(C)=O)C(OC(C)=O)C1OC(C)=O` (configuration not stated): the EC50 was > 100 µM, the result was inactive and the IC50 was 18.6 µM.
As to `CC(=O)NNc1nc(C)c(C(/C=C/c2ccc(Cl)cc2)=N\N=C(N)N)s1`, the EC50 was > 18.2 µM and the IC50 is > 18.2 µM.
With `CCCCCCCCCCCCCCCCC(C(=O)O)C(=O)O`, the EC50 is > 21.9 µM and the IC50 is > 21.9 µM.
On to `CCCCCCCCCCCC(=O)OCCNC(=O)C[n+]1ccccc1`, for which the EC50 is > 200 µM and the IC50 was > 200 µM.
Take `COc1ccc(COC(=O)NNC(=O)C2CSC(c3ccccc3)N2C(C)=O)cc1` (configuration not stated): the EC50 was > 200 µM and the IC50 was determined as 174 µM.
The corresponding values for `CCC[CH2][Sn]([CH2]CCC)([O]C(=O)c1cccc(F)c1)[O]C(=O)c1cccc(F)c1` are > 10.2 µM and 6.61 µM.
In the same order, the values of `COc1ccc(C2OCCN2C)cc1` (configuration not stated) are > 200 µM and > 200 µM.
In the same order, the values of `C=C1C(=O)OC2C3C(C)=CC(=O)C3=C(C)CC[C@@H]12` (some centres not stated) are > 30.9 µM and 2.04 µM.
In the case of `CCOC(=O)C1=C(C)N(c2ccccc2)C2=C(C(=O)N(c3ccccc3)C2c2ccccc2)C1c1ccccc1` (configuration not stated), the EC50 is > 67.6 µM and the 50% inhibitory concentration (IC50) is > 67.6 µM.
As to `CCc1c(C#N)c(=O)[nH]c(=O)n1CCN1CCN(C(=O)NCCCCCCNC(=O)N2CCN(CCn3c(CC)c(C#N)c(=O)[nH]c3=O)CC2)CC1`, the outcome was inactive.
As to `CC1OC1C(=O)C1(O)C(C)C(O)C23OC2(C(O)c2c(O)cccc2C3=O)C1O` (configuration not stated), the EC50 was > 229 µM and the IC50 is 0.229 µM.
In the same order, the values of `C=C1CC(CN2CCC(=O)NC2=O)(c2ccccc2)OC1=O` (configuration not stated) are > 200 µM and 1.48 µM.
`CC(C)CCCC(C)C1CCC2C3CC([N+](=O)[O-])=C4CC(O)CCC4(C)C3CCC12C` (configuration not stated): the EC50 was > 575 µM and the IC50 came to 251 µM.
For `COc1ccc(C(=O)/C(Br)=C/C(=O)O)cc1`, the EC50 is > 427 µM and the IC50 came to 22.9 µM.
Regarding `c1ccc(Nn2c(CCCCCCCCc3nnc(COc4ccccc4)n3Nc3ccccc3)nnc2COc2ccccc2)cc1`, the EC50 is > 2 µM and the IC50 was > 2 µM.
For `CC(C)C1(Cl)CCC2C3(C)CCCC(C)(C(=O)O)C3CC(Cl)C2(Cl)C1Cl` (configuration not stated), the EC50 is > 200 µM and the IC50 came out at 41.7 µM.
In the same order, the values of `N#Cc1cnn2c1n[n+]([O-])c1ccc(Cl)cc12` are > 100 µM and 7.76 µM.
With `O=C(O)C[S][Bi]([S]CC(=O)O)[S]CC(=O)O`, the result was inactive.
Turning to `c1ccc(-c2c(-c3ccccc3)c2=NN(c2ccccc2)c2ccccc2)cc1`, the EC50 was > 200 µM and the IC50 is 11 µM.
With `O=c1[nH]c(NCc2ccc(Cl)cc2)nc2nc[nH]c12`, the EC50 was > 200 µM and the IC50 came out at 55 µM.
`CC(C)(CN(Cc1ccccc1)Cc1ccccc1)[N+](=O)[O-]`: the result was inactive.
As to `O=NN(CCCl)C(=O)NC1CCC(=O)NC1=O` (configuration not stated), the EC50 was > 955 µM and the IC50 came to 182 µM.
In the same order, the values of `O=c1[nH]ncc2c1Sc1cn[nH]c(=O)c1S2` are > 10.7 µM and > 10.7 µM.
The corresponding values for `O=c1c2nc(-c3ccccc3)oc2n(-c2ccccc2)c(=O)n1-c1ccccc1` are > 200 µM and 117 µM.
In the same order, the values of `Cc1cc(=O)c2cc3ccc4c5[nH]c(C)cc(=O)c5cc5ccc(c2[nH]1)c3c54` are > 200 µM and 33.9 µM.
Take `O=C1OC2CCCC1O2` (configuration not stated): the EC50 was > 200 µM and the IC50 was > 200 µM.
For the compound `NC(N)=NC(P(=O)(O)O)P(=O)(O)O`, the EC50 is > 200 µM and the IC50 is > 200 µM.
`Cc1ccccc1C1=[N+]([O-])c2ccccc2C1=O`: the outcome was inactive.
For `CC(=O)OCC1(CNc2nc(N)ncc2C#N)CC(CCc2ccccc2)C1` (configuration not stated), the EC50 is > 200 µM and the IC50 came out at 17.4 µM.
For the compound `O=C(Nc1ccc(Cl)cc1)NS(=O)(=O)c1c(-c2ccccc2)oc2ccccc2c1=O`, the result was inactive.
`CCCCCCCCCCCCCCCCC(c1ccc(O)c(C(=O)O)c1)c1ccc(O)c(C(=O)O)c1`: the EC50 is > 229 µM and the IC50 was determined as 91.2 µM.
Regarding `Cc1cc(C)nc(NS(=O)(=O)c2ccc(N=c3c4ccccc4n(Cc4ccccc4)c4ccccc34)cc2)n1`, the result was inactive.
`COc1cc(/C=C(\C#N)c2ccc([N+](=O)[O-])cc2)ccc1O`: the EC50 is > 151 µM and the IC50 was 27.5 µM.
The corresponding values for `CC#COS(=O)(=O)c1ccc(C)cc1` are > 251 µM and 110 µM.
The corresponding values for `c1ccc2[nH]c(SSc3nc4ccccc4[nH]3)nc2c1` are > 107 µM and 89.1 µM.
